From patent publication US20250241902A1, “METHODS, COMPOSITIONS AND SYSTEMS FOR EVALUATION OF VISUAL FUNCTION” (BELITE BIO, INC, priority 2022, published 2025)

Legend:
Type in all cases: in vivo, human
[1] = test system: adolescent STGD1 patients; test: Clinical study: lesion size by fundus autofluorescence (FAF; DDAF/QDAF); conditions: for FAF lesion area: subject 3, right eye
From the text: Fundus autofluorescence (FAF) imaging is used as an endpoint in clinical trials. FAF is used to detect lesion growth with more than one timepoint of measurements. The change in lesion area measured by FAF can be plotted against time to calculate lesion growth rate, e.g., how fast or slow a patient's macula or retina is degenerating as compared to placebo. FAF imaging is used to compare the rate of anatomical or structural deterioration or change to evaluate a drug or treatment's therapeutic effect, e.g., reduced worsening of the retina degeneration.
In some embodiments, fundus autofluorescence (FAF) is used for evaluation of ocular disease or visual function. In some embodiments, one or more retina images of FAF is used for detection of atrophic areas. In some embodiments, one or more retina images of FAF is used to gain detailed insight into the health of the retinal pigment epithelium (RPE). In some embodiments, one or more images of FAF may be high-contrast retina images. In some embodiments, two types of decreased autofluorescence (DAF) may be quantified. In some embodiments, one type of DAF may be definite DAF (DDAF) which includes an area having a level of darkness being defined as qualitatively definite. In some embodiments, the other type of DAF may be questionable DAF (QDAF) which includes an area having a level of darkness being defined as qualitatively questionable. In some embodiments, the size of decreased autofluorescence (DAF) lesion may be the sum of all DDAF and QDAF. In some embodiments, DAF may be expressed as an area in square millimeters (mm^2).
(§1) The therapeutic effect of a compound of Formula (I), also known as Tinlarebant, was evaluated in a group of individuals with adolescent STGD. The treatment covered Phase 1b and Phase 2. Phase 1b included a 4-week treatment and a 14-day follow-up. Phase 2 included a 2-year treatment and 1-month follow-up. A total of 13 individuals received the treatment: 5 males and 8 females. All 13 individuals had STGD 1 aged 12-18 years old. All 13 individuals received the treatment of a compound of Formula (I), a RBP4 inhibitor.
(§2) The clinical study evaluated ocular and systemic safety and tolerability of the compound and determined the optimal dose, pharmacokinetics (PK), and […]. The study measured visual improvement by best corrected visual acuity (BCVA) test, self-reported visual questionnaire test, the change in lesion size by FAF, the change in retinal thickness and morphology by SD-OCT, the change in retinal sensitivity by microperimetry, and the change in quantitative AF. In addition, this study evaluated correlation between reduction in RBP4 and rate of lesion growth including change in autofluorescence.

[2] = test system: adolescent STGD1 patients; test: Clinical study (Phase 1b/2): ocular and systemic safety and tolerability
Method: as §1, §2
In addition, the treatment was able to maintain 80%-90% RBP4 reduction from baseline throughout the study. All patients received at least 7 months of the treatment. […] Delayed dark adaptation, night vision impairment, and xanthopsia/chromatopsia were the only drug related ophthalmic adverse events.

[3] = test system: adolescent STGD1 patients; test: Clinical study: ellipsoid zone (EZ) defect width by SD-OCT
From the text: In some embodiments, spectral domain-optical coherence tomography (SD-OCT) is used for evaluation of ocular disease or visual function. In some embodiments, SD-OCT provides in vivo cross-sectional and […] visualization of the retina and the RPE. In some embodiments, SD-OCT is used to detect the presence of RPE atrophy. In some embodiments, SD-OCT is used to evaluate ellipsoid zone (EZ) defect width. In some embodiments, the EZ line provides information on the integrity of the photoreceptors. In some embodiments, the EZ line provides useful information in early disease. In some embodiments, an image of SD-OCT is used to evaluate the central subfield retina thickness (CST). In some embodiments, an image of SD-OCT is used to evaluate the middle subfield retina thickness (MST). In some embodiments, an image of SD-OCT is used to evaluate the outer subfield retina thickness (OST). The therapeutic effect of a compound of Formula (I), also known as Tinlarebant, was evaluated in a group of individuals with adolescent STGD. The treatment covered Phase 1b and Phase 2. Phase 1b included a 4-week treatment and a 14-day follow-up. Phase 2 included a 2-year treatment and 1-month follow-up. A total of 13 individuals received the treatment: 5 males and 8 females. All 13 individuals had STGD 1 aged 12-18 years old. All 13 individuals received the treatment of a compound of Formula (I), a RBP4 inhibitor. The clinical study evaluated ocular and systemic safety and tolerability of the compound and determined the optimal dose, pharmacokinetics (PK), and […]. The study measured visual improvement by best corrected visual acuity (BCVA) test, self-reported visual questionnaire test, the change in lesion size by FAF, the change in retinal thickness and morphology by SD-OCT, the change in retinal sensitivity by microperimetry, and the change in quantitative AF. In addition, this study evaluated correlation between reduction in RBP4 and rate of lesion growth including change in autofluorescence.

[4] = subject 11, both eyes, phase 2 week 1 vs week 9

SMILES: CC(=O)N1CCc2c(C(=O)N3CCC(c4ccc(F)c(F)c4C(F)(F)F)CC3)n[nH]c2C1 [Tinlarebant]
- autofluorescence expansion (FAF), trend ([1]; cohort): trend of preventing or slowing autofluorescence expansion
- patients who maintained no DDAF lesion growth ([1]; cohort): 12 of the 13
- patients with no change or reduction in QDAF area in one or both eyes ([1]; cohort): 6 of 11
- autofluorescence expansion (FAF), trend ([1]; cohort, listed as compound of Formula (I)): trend in preventing or slowing autofluorescence expansion
- average change in QDAF area ([1]; left eye, cohort): 0.1±0.11 mm^2
- average change in QDAF area ([1]; right eye, cohort): 0.3±0.11 mm^2
- area size of QDAF ([1]; subject 3, either eye, phase 2 week 1 vs week 9): no increase
- FAF lesion area ([1]; phase 2 baseline): 2.7 mm^2
- FAF lesion area ([1]; phase 2 month 6): 2.7 mm^2
- QDAF in size ([1]; subject 4, left eye, Phase 2 Baseline vs Month 6 (FIG. 2A)): stabilization
- QDAF in size ([1]; subject 4, left or right eye, phase 2 week 1 vs week 9): no increase
- QDAF/DDAF change [1, 4]: transition of QDAF to DDAF
- safety and tolerability ([2]; 5 mg daily, adolescent STGD1 patients): safe and well tolerated
- adverse events requiring discontinuation of treatment ([2]; 13 patients): no adverse events required discontinuation of treatment
- vital signs, physical exams, electrocardiogram (ECG), organ functions ([2]; 13 patients): No clinical significant findings
- severe adverse events ([2]; 13 patients, at least 7 months of treatment): No severe adverse events
- safety and tolerability ([2]; after approximately 7 months of treatment (1 month Phase 1b, 6 months Phase 2)): safe and well tolerated
- severity of delayed dark adaptation, night vision impairment, xanthopsia/chromatopsia (drug related ophthalmic adverse events) ([2]; all instances, 13 patients): mild and transient
- symptoms in patients with delayed dark adaptation ([2]; human, in vivo): mostly asymptomatic
- Delayed Dark Adaptation: Frequency (subject) ([2]; related adverse event): 8/13
- Night Vision Impairment: % Recovered ([2]; related adverse event): 0/1
- Night Vision Impairment: Frequency (subject) ([2]; related adverse event): 1/13
- Xanthopsia/Chromatopsia: Frequency (subject) ([2]; related adverse event): 9/13
- patients with improvement in EZ defect width (narrowing) in at least one eye ([3]; cohort): 5 patients
- patients with improvement in EZ defect width in both eyes ([3]; cohort): 3 patients
- EZ defect width, trend ([3]; cohort, summary): trend in reducing EZ defect width
- EZ defect width average increase ([3]; left eye, cohort): 0.48±0.26 mm
- EZ defect width average increase ([3]; right eye, cohort): 0.39±0.27 mm
- ellipsoid zone (EZ) width change ([3]; subject 3, especially left eye, phase 2 week 1 vs week 9): decreased in both eyes
- EZ defect width reduction ([3]; subject 3, left eye): 0.20 mm
- EZ defect width ([3]; subject 3, left eye, phase 2 baseline): 2.91 mm
- EZ defect width ([3]; subject 3, left eye, phase 2 month 6): 2.71 mm
- EZ defect width reduction ([3]; subject 3, right eye): 0.13 mm
- EZ defect width ([3]; subject 4, right eye, Phase 2 Baseline): 1.79 mm
- EZ defect width ([3]; subject 4, right eye, Phase 2 Month 6): 1.85 mm
- EZ defect width reduction ([3]; subject 6, left eye): 0.22 mm
- EZ defect width reduction ([3]; subject 6, right eye): 0.27 mm
- EZ width change [3, 4]: stabilized
- EZ defect width ([3]; subject 11, left eye, Phase 2 Baseline): 2.20 mm
- EZ defect width ([3]; subject 11, left eye, Phase 2 Month 6): 2.29 mm
